Results on nine compounds are retold here after US12440473B2 (priority 2019, dated 2025).

SMILES strings stand for the structures. pEC50, pIC50: −log10 of the molar value. Read-outs that look alike come from different tables or passages of the source. Some results are limits rather than exact numbers.

One assay concerns the target T1, full length human PPAR-α (Homo sapiens, UniProt Q07869).
T1 construct: host or cells: Chinese hamster ovary (CHO) cell lines
T1 sequence (Q07869 1-468): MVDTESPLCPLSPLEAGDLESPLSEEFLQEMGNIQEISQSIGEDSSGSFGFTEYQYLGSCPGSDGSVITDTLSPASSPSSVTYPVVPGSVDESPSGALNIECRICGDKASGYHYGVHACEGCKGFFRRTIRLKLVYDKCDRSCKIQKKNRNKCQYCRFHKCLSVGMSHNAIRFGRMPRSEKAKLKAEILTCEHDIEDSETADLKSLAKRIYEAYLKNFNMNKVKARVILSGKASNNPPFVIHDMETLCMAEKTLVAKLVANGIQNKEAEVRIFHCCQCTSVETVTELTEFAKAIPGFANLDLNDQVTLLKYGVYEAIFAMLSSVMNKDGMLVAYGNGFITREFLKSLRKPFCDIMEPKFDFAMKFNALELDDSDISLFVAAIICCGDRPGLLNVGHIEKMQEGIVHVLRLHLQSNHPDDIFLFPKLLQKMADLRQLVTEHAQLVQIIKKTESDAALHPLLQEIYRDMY
The assay can be described thus: PathHunter NHR Protein Interaction assay, PPAR-α agonist activity (CHO cells). It is filed as cell-based. The note with it: for pEC50: Table 5, read-out: Cell-Based PPAR Agonist Activity Half Maximal Effective Concentration (EC50) PPAR-α; for PPAR-α EC50 % improvement over FFA form: compared to free fatty acid form; for PPAR-α agonist maximum activity: text of Example 3; for Emax: CHO, PPAR-alpha, free fatty acid form, normalized to control compound (GW7647), read-out: Maximum Response.

Another assay deals with T2, full length human PPAR-γ (Homo sapiens, UniProt P37231).
T2 construct: host or cells: Chinese hamster ovary (CHO) cell lines
T2 sequence (P37231 1-505): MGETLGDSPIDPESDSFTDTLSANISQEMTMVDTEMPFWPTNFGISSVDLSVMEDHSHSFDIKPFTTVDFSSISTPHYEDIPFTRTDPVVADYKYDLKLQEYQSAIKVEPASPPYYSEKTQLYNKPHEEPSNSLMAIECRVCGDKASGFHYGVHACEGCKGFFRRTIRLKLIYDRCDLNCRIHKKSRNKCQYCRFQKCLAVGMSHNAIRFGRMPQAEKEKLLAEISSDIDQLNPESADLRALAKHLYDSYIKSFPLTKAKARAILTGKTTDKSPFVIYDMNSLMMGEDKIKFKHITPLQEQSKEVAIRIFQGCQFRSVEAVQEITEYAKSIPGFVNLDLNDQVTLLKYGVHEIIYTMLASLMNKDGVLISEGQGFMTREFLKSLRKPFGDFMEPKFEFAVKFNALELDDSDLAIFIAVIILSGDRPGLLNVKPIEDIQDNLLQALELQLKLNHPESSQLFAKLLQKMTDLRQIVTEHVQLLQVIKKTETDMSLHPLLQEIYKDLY
Kind of assay: PathHunter NHR Protein Interaction assay, PPAR-γ agonist activity (CHO cells). It is filed as cell-based. The note with it: for Emax: CHO, PPAR-gamma, free fatty acid form, normalized to control compound (Troglitazone), read-out: Maximum Response.

The target in the next assay is T3, full length human PPAR-δ (Homo sapiens, UniProt Q03181).
T3 construct: host or cells: Chinese hamster ovary (CHO) cell lines
T3 sequence (Q03181 1-441): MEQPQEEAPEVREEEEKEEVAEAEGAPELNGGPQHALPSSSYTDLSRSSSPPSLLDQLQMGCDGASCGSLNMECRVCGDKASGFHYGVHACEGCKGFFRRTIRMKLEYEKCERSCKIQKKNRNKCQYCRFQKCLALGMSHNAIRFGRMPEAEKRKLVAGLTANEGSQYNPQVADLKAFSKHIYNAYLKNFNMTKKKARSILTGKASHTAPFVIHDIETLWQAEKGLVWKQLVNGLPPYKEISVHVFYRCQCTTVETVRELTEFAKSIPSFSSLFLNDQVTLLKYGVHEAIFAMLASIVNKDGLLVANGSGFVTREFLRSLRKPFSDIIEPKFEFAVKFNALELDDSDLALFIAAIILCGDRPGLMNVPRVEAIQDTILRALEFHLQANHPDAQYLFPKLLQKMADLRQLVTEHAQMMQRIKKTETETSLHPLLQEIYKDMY
Kind of assay: PathHunter NHR Protein Interaction assay, PPAR-δ agonist activity (CHO cells). The assay is classed as cell-based. The note with it: for PPAR-δ EC50 % improvement over FFA form: compared to free fatty acid form; for Emax: CHO, free fatty acid form, normalized to control compound (L-165,041), read-out: Maximum Response.

The target in assay [1] is T4, CB1 receptor (Homo sapiens, UniProt P21554). To be noted: for CB1-agonist maximum activity: positive control CP 55940 assigned 100% activity.
Description: (§1) Briefly, a variety of standardized and optimized functional assays were used to assess and compare the selected compounds' pharmacologic targets, including G protein-coupled receptors (ADORA2A, ADRA1A, ADRA2A, ADRB1, ADRB2, CB1, CB2, CCK1, D1, D2S, ETA, H1, H2, M1 M2, M3, OPRD1, OPRK1, OPRM1, 5HTR1A, 5HTR1B, 5HTR2A, 5HTR2B, AVPR1A), kinases (LCK, INSR, VEGFR2, ROCK1), transporters (DAT, NET, SERT), ion channels (GABAA, 5-HT3, CA1.2, HERG, KVLQT1/MINK, NA1.5, NMDAR1/2B, NACHR), nuclear receptors (AR, GR), and non-kinase enzymes (COX1, COX2, ACHE, MAO-A, PDE3A, PDE4D2). […] Maximum activity (%) was also determined based on comparisons with internal positive controls, which were assigned 100% activity.
For another assay, the target named is OPRM1 (Homo sapiens, UniProt P35372).
The target in assay [2] is T4, CB1 receptor. Kind of assay: cell-based.
Description: as §1
The subject of assay [3] is G protein-coupled receptors, kinases, transporters, ion channels, nuclear receptors, non-kinase enzymes. Kind of assay: SAFETYscan E/IC50 ELECT panel, agonist and antagonist activities across 78 assays.
Description: as §1
Another assay deals with cannabinoid receptor 1 (Homo sapiens, UniProt P21554). Kind of assay: Cannabinoid receptor 1 agonist activity (Example 4). The note with it: for % maximum activity compared to positive control (CP55940): cannabinoid receptor 1 agonist (Table 6).
Another assay concerns diet-induced obese mice. The assay can be described thus: Diet-induced obese mice on high fat diet, daily oral gavage for 12 weeks. To be noted: for Cholesterol / Glucose: Results (Day 84), 6 h fasted samples.

cannabinoid receptor 1, sequence (P21554 whole entry, species assumed): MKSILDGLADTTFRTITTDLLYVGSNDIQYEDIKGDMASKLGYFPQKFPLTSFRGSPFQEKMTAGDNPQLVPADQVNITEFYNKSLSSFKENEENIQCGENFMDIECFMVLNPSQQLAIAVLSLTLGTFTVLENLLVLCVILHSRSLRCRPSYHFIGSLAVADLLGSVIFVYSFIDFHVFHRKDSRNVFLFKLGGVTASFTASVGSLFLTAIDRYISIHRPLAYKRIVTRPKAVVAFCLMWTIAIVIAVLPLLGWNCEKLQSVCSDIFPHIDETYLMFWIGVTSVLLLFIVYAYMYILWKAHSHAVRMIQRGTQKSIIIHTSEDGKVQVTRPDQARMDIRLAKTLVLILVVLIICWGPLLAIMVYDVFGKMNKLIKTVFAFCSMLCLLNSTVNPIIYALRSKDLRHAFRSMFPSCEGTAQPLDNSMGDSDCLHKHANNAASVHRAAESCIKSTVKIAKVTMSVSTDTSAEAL
T4 sequence (P21554 whole entry): as the sequence (P21554 whole entry, species assumed) above
OPRM1, sequence (P35372 whole entry): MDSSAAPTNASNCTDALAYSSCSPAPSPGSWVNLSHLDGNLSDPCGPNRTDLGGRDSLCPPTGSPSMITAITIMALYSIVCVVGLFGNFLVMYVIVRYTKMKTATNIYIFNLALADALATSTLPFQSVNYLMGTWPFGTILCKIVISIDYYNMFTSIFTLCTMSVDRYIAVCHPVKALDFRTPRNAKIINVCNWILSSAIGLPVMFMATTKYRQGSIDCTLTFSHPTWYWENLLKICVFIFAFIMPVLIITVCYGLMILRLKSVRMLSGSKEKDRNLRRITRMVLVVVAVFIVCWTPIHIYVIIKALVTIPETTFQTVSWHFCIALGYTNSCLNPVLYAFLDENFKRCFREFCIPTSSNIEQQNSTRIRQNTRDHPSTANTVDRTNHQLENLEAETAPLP
Description for OPRM1: as §1
Protocol for diet-induced obese mice: Forty C57BL/6J mice were fed a high fat diet (HFD) (D12492, 60% kcals fat) for 8 weeks. Study mice were then divided into the following four groups of ten: vehicle controls, low dose C17:0-treated (5 mg/kg body weight), high-dose C17:0-treated (50 mg/kg body weight), and low-dose C15:0-treated (5 mg/kg body weight).
“Results” values are based on 6 h fasted samples.
Protocol for full length human PPAR-α: (§2) PPAR-α, PPAR-δ, and PPAR-γ agonist activities were measured using PathHunter Nuclear Hormone Receptor (NHR) Protein Interaction (Pro) assays (DiscoverX, Freemont, California). Briefly, Chinese hamster ovary (CHO) cell lines were used to monitor the activation of PPAR-α, PPAR-δ, and PPAR-γ in a homogenous, non-imaging assay format using Enzyme Fragment Complementation (EFC). The NHR Pro assay was based on detection of protein-protein interactions between activated, full length PPAR-α, PPAR-δ, and PPAR-γ proteins and a nuclear fusion protein containing Steroid Receptor Co-activator Peptide (SRCP) domains with one or more canonical LXXLL interaction motifs. PPAR-α, PPAR-δ, and PPAR-γ were tagged with the ProLink component of the EFC assay system, and the SRCP domain was fused to the enzyme acceptor component (EA) expressed in the nucleus. When bound by ligand, PPAR-α, PPAR-δ, or PPAR-γ migrated to the nucleus and recruited the SRCP domain, whereby complementation occurred, generating a unit of active β-Galactosidase (β-Gal) and production of chemiluminescent signal. […] Percentage activity was calculated using the following formula: % Activity=100%×(mean RLU of test sample−mean RLU of vehicle control)/(mean MAX control ligand−mean RLU of vehicle control).
Protocol for full length human PPAR-γ: as §2
Protocol for full length human PPAR-δ: as §2

The term pIC50 denotes −log10 of the IC50, conventionally taken in molar units. In the case of `CCCCCCCCCCCCCCc1nnn[nH]1` [1-tetrazole-C15:0], the pEC50 at full length human PPAR-α was 5.59; at full length human PPAR-γ (Table 5, read-out: Cell-Based PPAR Agonist Activity Half Maximal Effective Concentration (EC50) PPAR-γ) it was less than 4.00; at full length human PPAR-δ (Table 5, read-out: Cell-Based PPAR Agonist Activity Half Maximal Effective Concentration (EC50) PPAR-δ), 6.30. Besides, on full length human PPAR-α, the “PPAR-α EC50 % improvement over FFA form” value worked out at 77%. Moreover, at full length human PPAR-α, the “PPAR-α agonist maximum activity” value came out at 32%. The “PPAR-δ EC50 % improvement over FFA form” value at full length human PPAR-δ stood at 81%. Also, at full length human PPAR-δ (text of Example 3), the “PPAR-δ agonist maximum activity” value was 18%. Moreover, on CB1 receptor [1], the CB1-agonist maximum activity is reported as 48.3%. Besides, the pIC50 was 5.89 at CB1 receptor [1] (read-out: CB1-agonist activity IC50, ten-point concentration curves) and 5.41 at OPRM1 (read-out: OPRM1 antagonist IC50, ten-point concentration curves). Besides, the “OPRM1 antagonist maximum activity” value at OPRM1 worked out at 46.2%.
Regarding `CCCCCCCCCCCCCC(CC)C(=O)O` (centres unmarked) [2-ethyl-C15:0, 2-ethylpentadecanoic acid], the “PPAR-α EC50 % improvement over FFA form” value on full length human PPAR-α worked out at 90%. In addition, the “PPAR-α agonist maximum activity” value on full length human PPAR-α came to 170%. The “PPAR-γ EC50 % improvement over FFA form” value on full length human PPAR-γ (compared to free fatty acid form) is greater than 49%. In addition, the PPAR-γ agonist activity result at full length human PPAR-γ (in words) is “acquired PPAR-γ agonist activity”. The “PPAR-δ EC50 % improvement over FFA form” value at full length human PPAR-δ worked out at 89%. Besides, the “PPAR-δ agonist maximum activity” value at full length human PPAR-δ (text of Example 3) is 72.4%. The pEC50 is 7.55 on full length human PPAR-δ (text of Example 3, read-out: PPAR-δ agonist EC50) and 7.57 on CB1 receptor [2]. In addition, the CB1-agonist maximum activity at CB1 receptor [1] is reported as 53.7%.
For `CCCCCCCCCCCCCC(C)C(=O)O` (centres unmarked) [2-methyl-C15:0, 2-methylpentadecanoic acid], in [3], the “additional activity across 78 assays” value is on record as “no additional activity was detected”.
On to `CCCCCCCCCCCCOCC(=O)O` [3-oxa-C15:0, 2-(dodecyloxy)acetic acid], for which, at cannabinoid receptor 1, the pEC50 was 6.24 and the “% maximum activity compared to positive control (CP55940)” value worked out at 83%.
In the case of `CCCCCCCCCCCCCC(=O)O` [C14:0, myristic acid, reference compound], at full length human PPAR-α, the Emax was determined as 74.1% and the pEC50 was 5.08. In addition, the Emax on full length human PPAR-γ was 19%.
Regarding `CCCCCCCCCCCCCCC(=O)O` [C15:0, pentadecanoic acid], the “additional activity across 78 assays” value in [3] was “no additional activity was detected”. In addition, the Emax turned out to be 65.8% at full length human PPAR-α, 7% at full length human PPAR-γ and 52.8% on full length human PPAR-δ (PPAR-delta). For the same compound, the “metabolic syndrome (glucose, insulin, cholesterol, proinflammatory cytokines) compared to controls” value in the assay on diet-induced obese mice (5 mg/kg, vs vehicle control group) is given as “attenuated metabolic syndrome”. The Cholesterol with diet-induced obese mice (5 mg/kg daily oral) amounted to 183 ± 25 mg/dL. The Glucose in the assay on diet-induced obese mice (5 mg/kg daily oral) was determined as 245 ± 37 mg/dL.
With `CCCCCCCCCCCCCCCC(=O)O` [C16:0, palmitic acid, reference compound], the values for the Emax at full length human PPAR-α and at full length human PPAR-γ were 56.1% and 4.7%, respectively.
For the compound `CCCCCCCCCCCCCCCCC(=O)O` [C17:0, heptadecanoic acid], the Emax worked out at 16.7% on full length human PPAR-α, 1% on full length human PPAR-γ and 39.8% at full length human PPAR-δ (PPAR-delta). In the assay on diet-induced obese mice (C17:0 5 and 50 mg/kg, vs vehicle control group), the “metabolic syndrome compared to controls” value is reported as “trended toward attenuated metabolic syndrome”. Also, the Cholesterol in the assay with diet-induced obese mice (5 mg/kg daily oral) was found to be 197 ± 31 mg/dL; in the assay on diet-induced obese mice (50 mg/kg daily oral), 187 ± 44 mg/dL. The Glucose in the assay on diet-induced obese mice (5 mg/kg daily oral) was determined as 296 ± 23 mg/dL; in the assay with diet-induced obese mice (50 mg/kg daily oral) it was 282 ± 31 mg/dL. Besides, the “proinflammatory cytokines and chemokines (TNF-α and MCP-1) compared to controls” value in the assay on diet-induced obese mice (high-dose 50 mg/kg, vs vehicle control group) is recorded as “significantly lower”. Moreover, the pEC50 on full length human PPAR-δ (PPAR-delta, free fatty acid form (Table 4), read-out: EC50) was 4.76.
For the compound `CCCCCCCCCCCCCC(CC)(CC)C(=O)O` [diethyl-C15:0], at cannabinoid receptor 1, the pEC50 is 5.48 and the “% maximum activity compared to positive control (CP55940)” value was determined as 93%.
